Laboratory results as given in publication PMC4399389, “Identification of a laccase Glac15 from Ganoderma lucidum 77002 and its application in bioethanol production” (Biotechnology for Biofuels, 2015).
Each block holds one molecule with its values, some of them ahead of it.

Columns and labels:
Assay in all cases: oxidation, absorbance at […] nm
Type in all cases: biochemical, Ganoderma lucidum
[1] = tested on: T1, Glac15 (laccase, isoenzyme from G. lucidum 77002); conditions: optimum pH 4.5; 50 mM citrate-phosphate buffer; optimal temperature 45 °C; O2 as co-substrate
T1 construct: native secreted enzyme purified from culture filtrate (ultrafiltration, DEAE-Sepharose FF); signal peptide of 21 residues removed; N-terminus GIGPTTDLTISNADI; tryptic peptides matched Glac6 and Glac15 of strain Xiangnong No.1

[2] = tested on: T1, Glac15 (laccase, isoenzyme from G. lucidum 77002); conditions: optimum pH 2.5; 50 mM citrate-phosphate buffer; optimal temperature 50 °C; O2 as co-substrate
[3] = tested on: T1, Glac15 (laccase, isoenzyme from G. lucidum 77002); conditions: optimum pH 5.0; 50 mM citrate-phosphate buffer; optimal temperature 45 °C; O2 as co-substrate
[4] = tested on: T1, Glac15 (laccase, isoenzyme from G. lucidum 77002); conditions: optimum pH 5.0; 50 mM citrate-phosphate buffer; optimal temperature 55 °C; O2 as co-substrate
[5] = tested on: T1, Glac15 (laccase, isoenzyme from G. lucidum 77002); conditions: optimum pH 4.5; 50 mM citrate-phosphate buffer; optimal temperature 50 °C; O2 as co-substrate
[6] = tested on: T1, Glac15 (laccase, isoenzyme from G. lucidum 77002); conditions: optimum pH 4.5; 50 mM citrate-phosphate buffer; optimal temperature 45 °C; O2 as co-substrate; remark: listed apart in the source

Km [1]: 120 µM
Structure (SMILES): COc1cccc(OC)c1O [2,6-DMP, 2,6-dimethoxyphenol]

Km [2]: 19 µM
Structure (SMILES): CCn1c(=NN=c2sc3cc(S(=O)(=O)O)ccc3n2CC)sc2cc(S(=O)(=O)O)ccc21 [ABTS, 2,2′-azino-bis-(3-ethylbenzothiazoline-6-sulfonic acid)]

Structure (SMILES): Oc1ccccc1O [Catechol]
Km [3]: 780 µM

Km [4]: 790 µM
Structure (SMILES): COc1ccccc1O [Guaiacol]

Km [5]: 890 µM
Structure (SMILES): N[C@@H](Cc1ccc(O)c(O)c1)C(=O)O [L-dopamine]

Km [6]: 62 µM
Structure (SMILES): COc1cc(C=NN=Cc2cc(OC)c(O)c(OC)c2)cc(OC)c1O [Syringaldazine]
